Measurements reported in article PMC12812009, “Optimization of 4‐Amino‐2‐Pyridone Inhibitors of Proprotein Convertase Subtilisin/Kexin Type 9: Integrating Structure–Activity and Structure–Metabolism Relationships” (Chemmedchem, 2025).

Tests used:
PCSK9 protein = experiment: Western blot of PCSK9 protein levels in HepG2 cells; format: cell-based, human; settings: 10 µM, HepG2, 24 h
Method: (§1) The third step of our functional assay was focused on the most promising compounds from the previous step (6b and 7), looking at the PCSK9 and LDLR protein expressions in HepG2 cells treated with increasing concentrations of the compounds (2.5–5–10 µM). This analysis, conducted in comparison with 5c using a Western blot assay, aimed to provide a more comprehensive understanding of the intracellular activity and efficacy of these novel PCSK9i , further supporting their potential for preclinical development. […] Importantly, LDLR protein levels were increased by compound 7 only at 10 µM (+39%, p < 0.01, Figure 6B) as compared to basal condition.
(§2) HepG2 cells were seeded at the cellular density of 500,000 cells/well in a 6‐well tray, in 2 mL of complete medium, and incubated as described above. The day after, treatments were prepared in starving medium. The cells were washed once with PBS and then incubated with media containing treatments. […] Total protein content was measured through bicinchoninic acid (BCA) assay (Euroclone, EMP014250), according to manufacturer's instructions. […] Immunobands were detected with Imager Alliance Q9 ATOM Supreme by UVITEC (Cambridge, UK) after 5 min of membranes incubation in the dark with ECL Star solution (EuroClone, EMP001005). Every experimental condition was run in triplicate and the average cell viability and standard deviation was calculated.

LDLR protein = experiment: Western blot of LDLR protein levels in HepG2 cells; format: cell-based, human; settings: HepG2, 24 h
Method: as §1, §2

[1] = In vitro metabolic stability with mouse liver microsomes; format: in vitro ADME; settings: for metabolic stability (in words): MLM + NADPH-generating system; for metabolic stability/PCSK9 IC50 ratio (in words): with respect to 5c
Method: All newly synthesized LSF derivatives of 5c were biologically evaluated to determine whether the introduced modifications influenced both metabolic stability and anti‐PCSK9 activity. Microsomal stability assays were conducted to assess the impact of LSF modifications on improving the stability of 5c. In these assays, LSF derivatives were incubated with mouse liver microsomes (MLM) and an NADPH‐generating system for 60 min, followed by HPLC analysis. Control samples included compounds and liver microsomes without the NADPH system, allowing for the assessment of nonspecific binding to microsomes. […] Acylated derivatives 12, 13, and 14 achieved stability levels exceeding 95%, as did the bicyclic derivative 7, which exemplifies a dual‐site functionalization.
MLM (pooled male) were obtained from Xenotech, LLC (Cambridge, Kansas City, USA). Glucose‐6‐phosphate (G6P), oxidized nicotinamide‐adenine‐dinucleotide phosphate (NADP^+), magnesium chloride (MgCl2), and glucose‐6‐phosphate‐dehydrogenase (G6PDH) were supplied by Sigma‐Aldrich (Milan, Italy). Metabolic stability assays were modified from Ferlenghi et al.^[ [33] ^] Briefly, samples were prepared in 100 mM phosphate buffered saline (PBS), pH 7.4, containing 1 mg ml^–1 MLM and a NADPH‐generating system (5 mM MgCl2, 10 mM glucose‐6‐phosphate, 2 mM NADP^+, 1.5 U ml^–1 of glucose‐6‐phosphate dehydrogenase). After incubation (37 °C, 5 min stirring), compounds stock solutions in DMSO were added to a final concentration of 10 µM. The final DMSO percentage in samples was kept at 0.5%. After 60 min, single aliquots of reaction mixture were withdrawn, added of two volumes of acetonitrile, centrifuged (10,000 g, 10 min) and the supernatant was analyzed by HPLC. The unspecific binding to MLM was evaluated by means of control samples in which the compounds were incubated in the absence of a NADPH generating system. The apparatus used for HPLC analysis was a Shimadzu instrument, with a reverse‐phase Nova‐Pak column (Waters) (C18 4 μm 3.9 × 150 mm, Waters). The mobile phase, pumped at a flow rate of 1.2 ml min^–1, consisted of water and acetonitrile in either a 50:50 (v/v) ratio (compounds 5c, 6a, 6b, 6c, 7, 8, 12, 13, 14, 17b) or a 40:60 (v/v) ratio (compounds 11 and 15) or a 30:70 (v/v) ratio (for compounds 17a, 18a, 18b). For compounds 9 and 10, a phosphate buffer (5.98 g L^–1 Na2HPO4, 0.19 g L^–1 KH2PO4, adjusted to pH 7.4 with 85% H3PO4 and supplemented with 1.4 mL L^–1 triethylamine; final pH: 8) and acetonitrile (50:50, v/v) were pumped at a flow rate of 2 mL min^–1. In all cases, column temperature was 35 °C, injection volume was 50 µl, and absorbance was monitored at 254 nm. Serial dilutions for the calibration curves were prepared in the interval 0.5–20 µM in either PBS:CH3CN or H2O:CH3CN mixture (50:50, v/v) for compounds 5c, 6a, 6b, 8, 9, 10, 11, 12, 13, 14, 15, 17a, 17b, 18a, 18b, and in acetonitrile for compounds 6c and 7.

[2] = parameters: method as in PMID 38160616; settings: seven days of daily subcutaneous administration; cited from earlier work
circulating PCSK9 = tested on: circulating PCSK9; parameters: method as in PMID 38160616; settings: mice; cited from earlier work

Compound | maximal reduction of PCSK9 protein levels vs. basal (PCSK9 protein) [%] | LDLR expression (in words) (LDLR protein; 2.5–5–10 µM) | metabolic stability (in words) ([1]; 60 min) | metabolic stability/PCSK9 IC50 ratio (in words) [1] | PCSK9 protein level change vs. basal (PCSK9 protein) [%] | LDLR protein level change vs. basal (LDLR protein; 10 µM) | metabolic stability, percentage of intact compound recovered relative to control ([1]; MLM 1 mg/ml + NADPH-generating system, 60 min, 10 µM, HPLC) | tolerability in mice (in words) [2] | circulating PCSK9 levels in vivo (in words) (circulating PCSK9)
Cc1cc(NCc2ccc(C(F)(F)F)cc2)c(Br)c(=O)n1Cc1ccc(C(F)(F)F)cc1 [Compound 6b, 3‐Bromo‐6‐Methyl‐1‐(4‐(Trifluoromethyl)Benzyl)‐4‐((4‐(Trifluoromethyl)Benzyl)Amino)pyridin‐2(1H)‐One] | 93 | did not modulate its expression at all concentrations tested | greater stability compared to chlorinated 6a | higher metabolic stability/PCSK9 IC50 ratio |  |  |  |  | 
Cc1cc2c(sc(=N)n2Cc2ccc(C(F)(F)F)cc2)c(=O)n1Cc1ccc(C(F)(F)F)cc1 [Compound 7, 2‐Imino‐6‐Methyl‐1,5‐Bis(4‐(Trifluoromethyl)benzyl)‐1,2‐Dihydrothiazolo[5,4‐c]pyridin‐4(5H)‐One] |  |  |  | higher metabolic stability/PCSK9 IC50 ratio | −42 | +39% | exceeding 95% |  | 
Cc1cc(NCc2ccc(C(F)(F)F)cc2)cc(=O)n1Cc1ccc(C(F)(F)F)cc1 [Compound 5c] |  |  | suboptimal metabolic stability |  |  |  |  | well tolerated | did not demonstrate a significant reduction in circulating PCSK9 levels
